# Active and inactive are the calls of the source. Rule as the data show it, for most assays here: actives have a measured Kd and inactives only a lower limit.
# Key:
# [1] = target: T1, Mitogen-activated protein kinase kinase kinase 5 (Homo sapiens, UniProt Q99683)
# T1 sequence (Q99683 whole entry): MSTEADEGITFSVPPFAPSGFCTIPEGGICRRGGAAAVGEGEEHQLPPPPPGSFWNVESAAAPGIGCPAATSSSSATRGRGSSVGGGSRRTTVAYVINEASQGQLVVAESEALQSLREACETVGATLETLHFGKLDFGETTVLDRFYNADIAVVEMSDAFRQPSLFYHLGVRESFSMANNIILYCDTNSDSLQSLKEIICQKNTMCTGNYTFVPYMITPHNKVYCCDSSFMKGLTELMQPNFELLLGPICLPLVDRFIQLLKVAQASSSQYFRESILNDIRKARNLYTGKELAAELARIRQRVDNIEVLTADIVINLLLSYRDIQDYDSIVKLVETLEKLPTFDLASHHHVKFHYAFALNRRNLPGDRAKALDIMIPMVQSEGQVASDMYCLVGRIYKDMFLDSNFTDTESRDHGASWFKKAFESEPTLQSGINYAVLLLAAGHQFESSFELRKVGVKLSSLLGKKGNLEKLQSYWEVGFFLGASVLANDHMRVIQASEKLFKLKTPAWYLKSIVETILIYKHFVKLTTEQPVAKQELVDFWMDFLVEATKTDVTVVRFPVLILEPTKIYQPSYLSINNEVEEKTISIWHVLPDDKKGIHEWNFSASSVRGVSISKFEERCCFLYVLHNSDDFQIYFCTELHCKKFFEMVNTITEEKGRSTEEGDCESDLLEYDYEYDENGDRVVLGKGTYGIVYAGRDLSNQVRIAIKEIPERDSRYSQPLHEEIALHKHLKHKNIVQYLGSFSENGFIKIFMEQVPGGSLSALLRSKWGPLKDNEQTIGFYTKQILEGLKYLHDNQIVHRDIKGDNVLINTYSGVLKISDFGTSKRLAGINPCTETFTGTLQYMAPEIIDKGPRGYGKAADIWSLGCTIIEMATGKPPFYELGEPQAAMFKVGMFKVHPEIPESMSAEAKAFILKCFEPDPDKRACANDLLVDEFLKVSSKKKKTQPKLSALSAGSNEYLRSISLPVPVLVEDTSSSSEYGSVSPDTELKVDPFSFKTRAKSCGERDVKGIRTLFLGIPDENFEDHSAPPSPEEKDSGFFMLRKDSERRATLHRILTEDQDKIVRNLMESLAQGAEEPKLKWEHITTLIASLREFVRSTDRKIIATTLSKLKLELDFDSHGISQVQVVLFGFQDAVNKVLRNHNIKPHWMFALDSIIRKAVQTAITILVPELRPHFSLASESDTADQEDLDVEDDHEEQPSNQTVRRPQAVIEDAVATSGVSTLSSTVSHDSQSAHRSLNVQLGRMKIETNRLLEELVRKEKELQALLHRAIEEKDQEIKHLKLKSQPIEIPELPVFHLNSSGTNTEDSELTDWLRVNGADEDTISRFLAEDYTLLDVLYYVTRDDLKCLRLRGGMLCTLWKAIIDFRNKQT
# [2] = target: Mitogen-activated protein kinase kinase kinase kinase 1 (Homo sapiens, UniProt Q92918)
# [3] = target: T2, Breakpoint cluster region protein (Homo sapiens, UniProt P11274)
# T2 sequence (P11274 whole entry): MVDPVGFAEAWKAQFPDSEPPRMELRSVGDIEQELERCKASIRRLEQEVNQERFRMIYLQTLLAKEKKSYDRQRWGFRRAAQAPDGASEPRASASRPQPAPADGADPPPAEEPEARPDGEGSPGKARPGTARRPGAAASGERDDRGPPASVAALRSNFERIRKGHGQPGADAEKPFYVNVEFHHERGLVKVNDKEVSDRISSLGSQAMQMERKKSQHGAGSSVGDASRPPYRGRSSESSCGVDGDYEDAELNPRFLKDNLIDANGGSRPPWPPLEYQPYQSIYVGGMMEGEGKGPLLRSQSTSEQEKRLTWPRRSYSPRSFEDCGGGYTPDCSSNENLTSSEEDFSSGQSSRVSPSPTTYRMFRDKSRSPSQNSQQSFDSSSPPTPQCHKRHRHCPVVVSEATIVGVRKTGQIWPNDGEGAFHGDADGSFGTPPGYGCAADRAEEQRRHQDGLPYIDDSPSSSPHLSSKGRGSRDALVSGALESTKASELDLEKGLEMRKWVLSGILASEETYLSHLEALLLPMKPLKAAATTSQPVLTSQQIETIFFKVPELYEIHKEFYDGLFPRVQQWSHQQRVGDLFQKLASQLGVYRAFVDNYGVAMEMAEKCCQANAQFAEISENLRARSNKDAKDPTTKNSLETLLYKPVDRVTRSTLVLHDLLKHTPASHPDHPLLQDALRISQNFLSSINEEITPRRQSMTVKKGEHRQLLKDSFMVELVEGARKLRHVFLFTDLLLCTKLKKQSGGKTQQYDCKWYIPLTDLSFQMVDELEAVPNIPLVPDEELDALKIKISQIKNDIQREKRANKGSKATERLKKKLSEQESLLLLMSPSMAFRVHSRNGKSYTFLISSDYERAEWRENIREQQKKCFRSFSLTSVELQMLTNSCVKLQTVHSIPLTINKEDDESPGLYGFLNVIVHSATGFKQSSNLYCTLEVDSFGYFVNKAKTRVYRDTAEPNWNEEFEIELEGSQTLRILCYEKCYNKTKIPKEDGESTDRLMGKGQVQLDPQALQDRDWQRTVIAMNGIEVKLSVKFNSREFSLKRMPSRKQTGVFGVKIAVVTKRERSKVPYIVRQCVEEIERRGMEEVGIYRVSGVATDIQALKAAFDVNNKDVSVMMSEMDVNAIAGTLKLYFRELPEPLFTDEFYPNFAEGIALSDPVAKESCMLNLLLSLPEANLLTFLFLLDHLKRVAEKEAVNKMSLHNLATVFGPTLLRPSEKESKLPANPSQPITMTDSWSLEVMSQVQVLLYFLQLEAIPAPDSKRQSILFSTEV
# [4] = target: cAMP-dependent protein kinase catalytic subunit gamma (Homo sapiens, UniProt P22612)
# [5] = target: Aurora kinase B (Homo sapiens, UniProt Q96GD4)
# Also: in the data inactive means no Kd found up to 30 µM.
# cAMP-dependent protein kinase catalytic subunit gamma, sequence (P22612 whole entry): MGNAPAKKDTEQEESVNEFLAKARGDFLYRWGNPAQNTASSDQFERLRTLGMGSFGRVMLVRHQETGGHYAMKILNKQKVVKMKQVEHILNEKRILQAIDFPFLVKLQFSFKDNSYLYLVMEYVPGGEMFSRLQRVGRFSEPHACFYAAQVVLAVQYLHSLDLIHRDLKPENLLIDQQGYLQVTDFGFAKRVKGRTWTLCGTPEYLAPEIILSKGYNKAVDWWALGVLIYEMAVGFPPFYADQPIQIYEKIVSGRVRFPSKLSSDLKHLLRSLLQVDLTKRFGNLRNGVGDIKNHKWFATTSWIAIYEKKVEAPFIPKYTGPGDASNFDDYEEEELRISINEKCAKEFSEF
# Aurora kinase B, sequence (Q96GD4 whole entry): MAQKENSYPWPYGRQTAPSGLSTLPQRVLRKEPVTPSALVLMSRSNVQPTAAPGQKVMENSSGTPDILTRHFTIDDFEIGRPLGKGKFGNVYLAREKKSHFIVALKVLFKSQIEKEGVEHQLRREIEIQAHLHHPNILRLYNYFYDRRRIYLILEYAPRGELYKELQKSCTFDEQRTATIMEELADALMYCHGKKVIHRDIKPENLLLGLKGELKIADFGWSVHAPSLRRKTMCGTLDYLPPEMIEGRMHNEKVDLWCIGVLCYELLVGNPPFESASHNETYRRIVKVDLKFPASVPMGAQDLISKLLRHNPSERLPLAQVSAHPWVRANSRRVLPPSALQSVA
# Mitogen-activated protein kinase kinase kinase kinase 1, sequence (Q92918 whole entry): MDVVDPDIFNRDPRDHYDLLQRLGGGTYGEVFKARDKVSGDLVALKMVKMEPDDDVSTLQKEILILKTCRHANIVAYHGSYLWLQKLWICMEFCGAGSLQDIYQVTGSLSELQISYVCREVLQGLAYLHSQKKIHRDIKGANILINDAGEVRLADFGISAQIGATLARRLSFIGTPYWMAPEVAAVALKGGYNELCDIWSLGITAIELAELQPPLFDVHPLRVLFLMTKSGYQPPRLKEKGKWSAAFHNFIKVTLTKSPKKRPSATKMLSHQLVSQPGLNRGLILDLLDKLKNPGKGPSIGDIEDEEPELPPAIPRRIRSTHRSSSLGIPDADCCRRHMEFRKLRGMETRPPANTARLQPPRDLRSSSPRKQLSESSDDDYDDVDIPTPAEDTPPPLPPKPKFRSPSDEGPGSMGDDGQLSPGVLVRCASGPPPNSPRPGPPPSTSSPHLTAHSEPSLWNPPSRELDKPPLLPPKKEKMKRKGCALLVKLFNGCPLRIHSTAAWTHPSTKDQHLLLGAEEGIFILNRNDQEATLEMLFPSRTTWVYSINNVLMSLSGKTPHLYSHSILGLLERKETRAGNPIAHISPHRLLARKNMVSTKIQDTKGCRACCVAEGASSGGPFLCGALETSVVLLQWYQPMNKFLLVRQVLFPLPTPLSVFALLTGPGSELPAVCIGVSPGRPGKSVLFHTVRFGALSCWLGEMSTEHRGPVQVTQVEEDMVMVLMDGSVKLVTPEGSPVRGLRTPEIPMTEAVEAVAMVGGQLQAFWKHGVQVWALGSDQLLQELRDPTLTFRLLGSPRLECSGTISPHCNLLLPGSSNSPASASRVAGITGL
Structure (SMILES),Kd [1],Kd [2],Kd [3],Kd [4],Kd [5]
CCc1cnn2c(NCc3ccc[n+]([O-])c3)cc(N3CCCC[C@H]3CCO)nc12 [DINACICLIB],> 30 µM (inactive),> 30 µM (inactive),> 30 µM (inactive),> 30 µM (inactive),
Cn1ncc(Cl)c1-c1cc(C(=O)N[C@H](CN)Cc2cccc(F)c2)sc1Cl [AFURESERTIB],> 30 µM (inactive),> 30 µM (inactive),,,> 30 µM (inactive)
CC[C@H](Nc1ncnc2[nH]cnc12)c1nc2cccc(F)c2c(=O)n1-c1ccccc1 [IDELALISIB],> 30 µM (inactive),> 30 µM (inactive),> 30 µM (inactive),> 30 µM (inactive),> 30 µM (inactive)
O=C(O)[C@]1(Cc2cccc(Nc3nccs3)n2)CC[C@@H](Oc2cccc(Cl)c2F)CC1 [MK-5108],> 30 µM (inactive),> 30 µM (inactive),0.011 µM (active),,
CN(C)C(=O)c1cc2cnc(Nc3ccc(N4CCNCC4)cn3)nc2n1C1CCCC1 [RIBOCICLIB],> 30 µM (inactive),> 30 µM (inactive),> 30 µM (inactive),> 30 µM (inactive),> 30 µM (inactive)
C[C@@H]1CN(Cc2ccc(F)cc2)[C@@H](C)CN1C(=O)c1cc2c(C(=O)C(=O)N(C)C)cn(C)c2cc1Cl [TALMAPIMOD],> 30 µM (inactive),> 30 µM (inactive),> 30 µM (inactive),> 30 µM (inactive),> 30 µM (inactive)
O=C1NC(=O)/C(=C/c2ccc3nccc(-c4ccncc4)c3c2)S1 [GSK-1059615],> 30 µM (inactive),> 30 µM (inactive),> 30 µM (inactive),> 30 µM (inactive),> 30 µM (inactive)
Cn1cc(-c2ccc3nnc(C(F)(F)c4ccc5ncccc5c4)n3n2)cn1 [JNJ-38877605],> 30 µM (inactive),> 30 µM (inactive),> 30 µM (inactive),> 30 µM (inactive),> 30 µM (inactive)
CO[C@H]1C[C@@H]2CC[C@@H](C)[C@@](O)(O2)C(=O)C(=O)N2CCCC[C@H]2C(=O)O[C@H]([C@H](C)C[C@@H]2CC[C@@H](OCCO)[C@H](OC)C2)CC(=O)[C@H](C)/C=C(\C)[C@@H](O)[C@@H](OC)C(=O)[C@H](C)C[C@H](C)/C=C/C=C/C=C/1C [EVEROLIMUS],> 30 µM (inactive),> 30 µM (inactive),> 30 µM (inactive),> 30 µM (inactive),> 30 µM (inactive)
CC(C)Nc1cc(-c2c[nH]c(C(=O)N[C@H](CO)c3cccc(Cl)c3)c2)c(Cl)cn1 [ULIXERTINIB],> 30 µM (inactive),> 30 µM (inactive),> 30 µM (inactive),> 30 µM (inactive),> 30 µM (inactive)
OCCn1cc(-c2cnc3nnn(Cc4ccc5ncccc5c4)c3n2)cn1 [PF-04217903],> 30 µM (inactive),> 30 µM (inactive),> 30 µM (inactive),,
CN1CCN(c2ccc3nc(-c4c(N)c5c(F)cccc5[nH]c4=O)[nH]c3c2)CC1 [DOVITINIB],,,17.4 µM (active),> 30 µM (inactive),
Cc1cc(Nc2cc(N3CCN(C)CC3)nc(/C=C/c3ccccc3)n2)n[nH]1 [ENMD-2076],> 30 µM (inactive),> 30 µM (inactive),> 30 µM (inactive),> 30 µM (inactive),
